Where two headings read alike, the source gives them in different places.
What was measured:
hERG channel [1] = target: T1, hERG channel (Homo sapiens, UniProt Q12809)
Excerpt: (§4) QPatch HTX system (Sophion Biosciences A/S, Ballerup, Denmark) was used to examine hERG signaling (Cyprotex, Watertown, MA, USA). The system was primed with appropriate extracellular (NaCl, KCl, CaCl2, MgCl2, D-glucose, HEPES, pH 7.4) and intracellular (KCl, MgCl2, EGTA, MgATP, HEPES, pH 7.2) solutions before conducting the study in a 48 well plate (QPlate, Sophion Biosciences A/S, Ballerup, Denmark). All cell suspensions, buffers, and test compound solutions were kept at room temperature during the experiment. HEK293 cells stably transfected with hERG cDNA were washed and positioned into each well (recording chamber) of the QPlate. The QPatch system follows the general principles of conventional whole-cell patch-clamping: a high resistance seal is formed between the patch electrode, and an individual cell, the membrane across the electrode tip is then ruptured, and the whole-cell patch-clamp configuration is established. The standard voltage profile was as follows: step from -80 mV to –50 mV for 200 ms, +20 mV for 4.8 s, step to -50 mV for 5 s, then stepped to the holding potential of -80 mV. The step from -80 mV to the test command (+20 mV) results in an outward current (i.e., current flows out of the cell), and the step from the test command (+20 mV) to -50 mV results in the tail current (the tail current represents deactivation of the current overtime). Compound dilutions were prepared by diluting a DMSO solution (default 10 mM), followed by dilution into an extracellular buffer such that the final concentrations tested were 0.1, 1, and 10 μM (final DMSO concentration 0.1%). Perfusion solutions contained 0.05% Pluronic F-68 and were stored at room temperature for the duration of the experiment each day. The voltage protocol was run and recorded continuously during the experiment. Cells were treated with a vehicle for 3 min (i.e., 0.1% DMSO) followed by three increasing test substance concentrations (0.1, 1, and 10 μM). The test compounds were applied in triplicate at each concentration and tested in at least 2 cells (biological replicates). […]

H. pylori 49503 = assay: Broth microdilution MIC, H. pylori; format: cell-based, Helicobacter pylori; settings: H. pylori 49503
Procedure: (§1) In vitro antibiotic susceptibilities were determined using the broth microdilution assay established by the Clinical and Laboratory Standards Institute ([Clinical and Laboratory Standards Institute, 2012]). Broth microdilution assays were carried out with 2 biological replicates, each in triplicate, Mueller–Hinton broth (MHB; BD Biosciences, Franklin Lakes, NJ, USA) with a total assay volume of 100 μL in 96-well plates (BD Biosciences, Franklin Lakes, NJ, USA). Two-fold serial dilutions of compounds were prepared at a range of 0.01– 64 μg/mL in 50 μL of MHB. The initial bacterial inoculum was adjusted to OD600 0.06, 50 μL was, added to the test compounds, and then incubated at 35°C for 18 h. Post incubation, OD600 was measured using a Vmax microplate reader (Molecular Devices, San Jose, CA), and the lowest concentration of test compound that suppressed bacterial growth was reported as the MIC. Broth culture from the MIC assay (10 μL) was plated on Mueller–Hinton agar (BD Biosciences, Franklin Lakes, NJ, USA), and colony-forming units (CFUs) were enumerated after overnight incubation at 37°C.

Enterobacter (EAE 2625) = assay: Broth microdilution MIC, Enterobacter; format: cell-based, Enterobacter spp.; settings: Enterobacter (EAE 2625)
Procedure: as §1

S. aureus MW2 [2] = assay: Broth microdilution MIC, S. aureus MW2; format: cell-based, Staphylococcus aureus; settings: S. aureus MW2 (MRSA), broth microdilution, 18 h
Procedure: as §1

[3] = test system: renal proximal tubule epithelial cells; assay: Renal proximal tubule epithelial cell toxicity; format: cell-based, human; settings: renal proximal tubule epithelial cells
[4] = test system: intracellular free thiols of S. aureus MW2; assay: Thiol depletion assay; format: cell-based, Staphylococcus aureus; settings: treated vs untreated cell lysate
Procedure: S. aureus MW2 was treated for 15 min with the indicated (0.125, 0.25, 0.5, or 0.75 µg/mL) concentrations of auranofin, AU1, AU5, or ampicillin. After treatment bacteria were washed twice in PBS and then resuspended in 100 mM potassium phosphate, monobasic, pH 7.4, containing 1 mM ethylenediaminetetraacetic acid to promote lysis. Cells were incubated in the lysis solution for 30 min at 60°C and then vortexed briefly. The solution was centrifuged at 13,000 g for 10 min to collect cell debris. Lysate was collected and 50 μL was transferred to a 96-well plate. Thiols were quantified using the Fluorometric Thiol assay kit following the manufacturer’s instructions (Millipore Sigma, St. Louis, MO, USA). The fluorescence intensity was measured after a 30 min incubation time at λex = 490/λem = 535 nm using a Vmax plate reader.

P. aeruginosa PA14 = assay: Broth microdilution MIC, P. aeruginosa; format: cell-based, Pseudomonas aeruginosa; settings: P. aeruginosa PA14
Procedure: as §1

mature S. aureus biofilm = assay: Disruption of mature biofilm; format: cell-based, Staphylococcus aureus; settings: preformed 24 h biofilm, Alamar Blue
Procedure: (§2) Diluted bacterial cells were added to 100 μL of test compounds (serially diluted 16 to 0 μg/mL) and incubated for 24 h to assess the biofilm formation inhibition. For the disruption of matured biofilm, diluted cells in 100 μL were added to the 96-well plate and incubated for 24 h with no agitation. […] Biofilm assays were completed in triplicate.

S. aureus TrxR = S. aureus TrxR (Staphylococcus aureus, UniProt P66011); assay: TrxR (TrxB) enzymatic assay, DTNB to TNB conversion
S. aureus TrxR, sequence (P66011 whole entry): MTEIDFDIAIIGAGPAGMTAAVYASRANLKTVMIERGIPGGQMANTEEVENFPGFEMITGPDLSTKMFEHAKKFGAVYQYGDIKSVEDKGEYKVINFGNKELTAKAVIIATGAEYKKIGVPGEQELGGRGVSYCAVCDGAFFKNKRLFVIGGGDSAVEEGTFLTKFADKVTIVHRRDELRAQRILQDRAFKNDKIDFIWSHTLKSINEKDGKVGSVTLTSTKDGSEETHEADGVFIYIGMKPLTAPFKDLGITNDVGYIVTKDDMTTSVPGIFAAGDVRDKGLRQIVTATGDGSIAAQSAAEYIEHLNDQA
Procedure: TrxR specific inhibitory activity was evaluated using 40 μL of S. aureus TrxR enzyme (0.5 μg/μL) per 200 mL of the reaction mixture for 15 minutes, comparing auranofin to other sulfur-containing compounds (all tested at 10 μg/mL), including known anti-S. aureus compounds.
For the screening assay, diluted TrxR assay buffer (Cayman Chemical, Ann Arbor, MI) (100 μL) was mixed with the investigational compounds (20 μL) in a 96 well-plate format and combined with Sa-TrxB (40 μL; 0.5 μg/mL), DTNB (20 μL) and NADPH (20 μL). The reaction entailed combining NADPH and Sa-TrxB with DTNB, which was converted to TNB, producing a yellow color.

[5] = test system: human primary hepatocytes; assay: Human primary hepatocytes toxicity; format: cell-based; settings: 24 h, WST1
Procedure: Human primary hepatocytes toxicity. Cryopreserved human primary hepatocytes were purchased from the Cell Resource Core at Massachusetts General Hospital (Boston, MA, USA). Collagen sandwiched configuration was used to culture the thawed cells in 24-well plates. The 24-well plates were coated with rat tail collagen type I (Cell Recourse Core, MGH) and incubated for an hour before 4 x 10^5 live cells were plated and incubated at 37°C with 5% CO2 for 1 h to allow cells to attach to the collagen gel. After incubation, the medium was removed along with dead cells, and the remaining cells received 0.5 mL of hepatocyte culture medium containing Dulbecco’s modified Eagle’s medium (DMEM) media supplemented with 10% FBS, 0.5 U/mL insulin, 14 ng/mL glucagon, 20 ng/mL EGF, 7.5 µg/mL hydrocortisone and 200 U/mL penicillin-streptomycin. The cell cultures were incubated in a humidified, 5% CO2 incubator at 37°C. After 24 h, a top layer of collagen gel was poured over the hepatocytes attached to collagen on the bottom of the plate, making a sandwich model. After 1 h, investigational compounds at the designated concentrations were added and incubated for 24 h. Post incubation, hepatocyte WST1 (Roche, Basel, Switzerland) was added and incubated for 4 h. Cell staining was measured by recording the absorbance at 420 nm, measured using a Vmax microplate reader (Molecular Devices, San Jose, CA, USA.), and data were plotted using GraphPad Prism. Cells were tested in triplicate.

[6] = set-up: method as in Kean et al., 1997; settings: auranofin-treated patients ref Kean et al., 1997; cited from earlier work
S. aureus MW2 [7] = assay: Diamide assay (CFU reduction); format: cell-based, Staphylococcus aureus; settings: compound 0.5 μg/mL + 5 mM diamide, 3 h
Procedure: An overnight culture of S. aureus MW2 was inoculated in tryptic soy broth (TSB) media and grown with agitation. The cells were centrifuged, washed with PBS, and diluted to an OD600 0.4 (10^8 CFU/mL) in PBS. The cells were then treated with auranofin (0.5 µg/mL), AU1 (0.5 µg/mL), AU5 (0.5 µg/mL), and diamide (5 mM and 10 mM) alone or in combinations for 3 h at 37°C. The cells were then serially diluted and plated on tryptic soy agar (TSA) media and incubated at 37°C for 24 h. Colonies that grew on plates were enumerated to determine the effect of the drug and diamide on S. aureus.

E. faecium ATCC E007 = assay: Broth microdilution MIC, E. faecium; format: cell-based, Enterococcus faecium; settings: E. faecium ATCC E007
Procedure: as §1

K. pneumoniae ATCC 77326 = assay: Broth microdilution MIC, K. pneumoniae; format: cell-based, Klebsiella pneumonia; settings: K. pneumoniae ATCC 77326
Procedure: as §1

[8] = test system: S. aureus MW2 biofilm formation; assay: Biofilm formation inhibition; format: cell-based, Staphylococcus aureus; settings: 24 h, Alamar Blue
Procedure: as §2

A. baumannii 17978 = assay: Broth microdilution MIC, A. baumannii; format: cell-based, Acinetobacter baumannii; settings: A. baumannii 17978
Procedure: as §1

HepG2 cells = assay: Immortalized cell line toxicity (WST-1), HepG2; format: cell-based, human; settings: HepG2 liver cell line, 24 h
Procedure: (§3) A hepatic cell line (HepG2), lung carcinoma cell line (A549), and kidney cell line (HKC) were used to test the cytotoxicity of investigational compounds. Cells were grown in DMEM (ThermoFisher Scientific, Waltham, MA, USA) supplemented with 10% fetal bovine serum (FBS) (ThermoFisher Scientific, Waltham, MA, USA) and 1% penicillin/streptomycin (ThermoFisher Scientific, Waltham, MA, USA) and maintained at 37°C in 5% CO2. 2.5x10^4 cells in 100 μL of DMEM with 10% FBS were added to wells of 96-well plates 24 h prior to the experiments. Compounds were serially diluted in […], and 100 μL antibiotic-free DMEM was added to the monolayer and incubated at 37°C in 5% CO2 for 24 h. At 2 h before the end of the incubation period, 10 μL of 2-(4-iodophenyl)-3-(4-nitrophenyl)-5-(2, 4-disulfophenyl)-2H-tetrazolium (WST-1) solution (Roche, Mannheim, Germany) was added to each well. WST-1 reduction was monitored at 450 nm using a Vmax microplate reader. Assays were performed in triplicate, and the percentage survival was calculated by comparing the compound-treated wells to the DMSO vehicle control wells.

human erythrocytes = settings: tested range 256 to 0.125 μg/mL
Procedure: The plate was incubated for 1h at 37°C. After incubation, the plate was centrifuged at 1000 g for 5 min. Then, 100 µL of supernatant was transferred to a fresh 96-well microtiter well plate and the OD was measured at 540 nm. The assay was conducted in triplicate and the mean and SD values were reported.

[9] = Compound solubility in DMSO; format: physicochemical; settings: organic solvent or mixture, turbidity at 540 nm, read-out: concentration up to which the compound remained soluble in DMSO
Procedure: To test compound solubility, stock solutions were made in triplicate at 50 mg/mL in DMSO. Two-fold serial dilutions of the test compounds were prepared at 50 μL volume in a 96-well assay plate and were kept in the incubator for 1 h. After incubation, the absorbance was measured at 540 nm using a Vmax microplate reader (Molecular Devices, Sunnyvale, CA, USA.) to detect turbidity.

S. aureus MW2 [10] = assay: Time to kill assay; format: cell-based, Staphylococcus aureus; settings: 4 × MIC, 4 h; bactericidal = 3-log10-CFU/mL reduction
Procedure: S. aureus MW2, a methicillin-resistant S. aureus (MRSA) isolate, was used to determine the bacteriostatic/bactericidal properties of test compounds, as previously described ([Rajamuthiah et al., 2015]). Assays were carried out as 2 biological replicates with n=3 for each in 24 well plates (BD Biosciences, Franklin Lakes, NJ, USA). Briefly, S. aureus MW2 cells were streaked on TSB agar from a frozen glycerol stock, and after overnight incubation, a single colony was inoculated on 2 mL of TSB and incubated at 37°C with agitation. The overnight culture of S. aureus MW2 was centrifuged at 4000 g for 5 min and then washed twice with PBS and collected through centrifuged at 4000 g for 5 min. The PBS was discarded and cells were suspended in TSB and aliquoted into a 24-well plate at a density of 10^8 cells/mL as a 1 mL volume. Test compounds were added such that the final concentration was 4 × MIC, and the cultures were incubated at 37°C with agitation. At designated time intervals, 5 μL aliquots from each test condition were serially diluted in TSB and plated onto TSA (BD Biosciences, Franklin Lakes, NJ, USA). CFUs were enumerated after overnight incubation at 35°C, and data were plotted using GraphPad Prism 9.0 (San Diego, CA, USA) to report the means and standard deviation of growth as measured by CFU/mL.

hERG channel [11] = target: T1, hERG channel; assay: hERG measurement (QPatch HTX patch clamp)
Excerpt: as §4

A549 cells = assay: Immortalized cell line toxicity (WST-1), A549; format: cell-based, human; settings: A549 lung carcinoma cell line, 24 h
Procedure: as §3

[12] = Compound solubility in PBS; format: physicochemical; settings: aqueous buffer
Procedure: Compound solubility in PBS. Compound solubility was measured in PBS. Briefly, serial dilutions of test compounds were prepared in DMSO at 100x the final concentration. Test compound solutions were diluted 100-fold into PBS in a 96-well plate and mixed. After 2 h, the presence of precipitate was detected by measuring absorbance at 540 nm.

[13] = Immortalized cell line toxicity (WST-1), the three cell lines together; format: cell-based; settings: human, hkc, hepg2, a549 cells; read-out: toxicity to cell lines as multiple of the MIC
Procedure: as §3

HKC cells = assay: Immortalized cell line toxicity (WST-1), HKC; format: cell-based, human; settings: HKC kidney cell line, 24 h
Procedure: as §3

T1 sequence (Q12809 whole entry): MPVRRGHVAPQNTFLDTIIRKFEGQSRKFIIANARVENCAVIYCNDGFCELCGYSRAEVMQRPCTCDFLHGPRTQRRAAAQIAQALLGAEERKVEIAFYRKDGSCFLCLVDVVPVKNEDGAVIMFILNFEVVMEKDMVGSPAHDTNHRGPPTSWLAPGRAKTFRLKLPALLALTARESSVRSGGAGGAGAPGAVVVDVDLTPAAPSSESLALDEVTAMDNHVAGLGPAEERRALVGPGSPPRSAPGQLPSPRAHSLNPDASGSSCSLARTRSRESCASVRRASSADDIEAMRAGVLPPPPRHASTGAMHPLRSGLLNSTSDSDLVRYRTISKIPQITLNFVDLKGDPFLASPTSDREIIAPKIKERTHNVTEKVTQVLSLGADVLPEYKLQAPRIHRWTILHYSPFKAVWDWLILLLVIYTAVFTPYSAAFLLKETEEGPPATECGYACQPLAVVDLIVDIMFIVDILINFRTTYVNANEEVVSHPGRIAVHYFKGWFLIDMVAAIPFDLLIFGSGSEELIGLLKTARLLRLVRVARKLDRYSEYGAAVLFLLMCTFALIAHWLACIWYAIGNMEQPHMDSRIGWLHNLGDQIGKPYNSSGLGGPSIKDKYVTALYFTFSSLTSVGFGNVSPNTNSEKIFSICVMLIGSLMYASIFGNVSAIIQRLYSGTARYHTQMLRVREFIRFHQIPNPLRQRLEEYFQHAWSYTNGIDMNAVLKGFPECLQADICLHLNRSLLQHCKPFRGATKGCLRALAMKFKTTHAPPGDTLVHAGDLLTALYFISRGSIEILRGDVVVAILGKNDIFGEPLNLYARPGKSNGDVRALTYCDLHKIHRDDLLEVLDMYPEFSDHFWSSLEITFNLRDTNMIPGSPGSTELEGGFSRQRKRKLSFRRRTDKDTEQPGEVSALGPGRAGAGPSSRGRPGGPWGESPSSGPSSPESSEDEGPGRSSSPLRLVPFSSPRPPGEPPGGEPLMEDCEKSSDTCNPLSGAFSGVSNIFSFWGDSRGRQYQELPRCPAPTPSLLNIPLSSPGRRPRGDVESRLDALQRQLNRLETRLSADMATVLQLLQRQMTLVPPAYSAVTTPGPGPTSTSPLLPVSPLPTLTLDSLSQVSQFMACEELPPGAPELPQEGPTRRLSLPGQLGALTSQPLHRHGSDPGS

CC(=O)OC[C@H]1O[C@@H]([S-])[C@H](OC(C)=O)[C@@H](OC(C)=O)[C@@H]1OC(C)=O.CCP(CC)CC.[Au+] [Auranofin]
IC50 (hERG channel [1]): 9.68 µM | MIC (H. pylori 49503): 0.25 µg/mL | MIC (Enterobacter (EAE 2625)): >32 µg/mL | MIC (S. aureus MW2 [2]): 0.25 µg/mL | LD50 as multiple of the MIC [3]: 6 X MIC | impact on free thiols (in words) [4]: a reduction was observed | MIC (P. aeruginosa PA14): >32 µg/mL | concentration that significantly reduced mature biofilm (mature S. aureus biofilm): 0.125 µg/mL | TrxR enzymatic inhibitory activity (in words) (S. aureus TrxR; DTNB to TNB conversion): Measurable activity reduction | OD420 in TrxR enzymatic assay (S. aureus TrxR; subscreen, after a 30 min incubation period, DMSO 0.483 ± 0.121): 0.295 ± 0.012 | LD50 [5]: approximately 8 μg/mL | patients with proteinuria [6]: 5% | log CFU reduction in combination with diamide (S. aureus MW2 [7]): 2.1 log CFU | MIC (E. faecium ATCC E007): 0.5 µg/mL | MIC (K. pneumoniae ATCC 77326): >32 µg/mL | concentration that inhibited biofilm formation (P<0.01) [8]: 0.125 µg/mL | MIC (A. baumannii 17978): 32 µg/mL

CC(C)(C)c1ccc([S-])cc1.CCP(CC)CC.[Au+] [AU1]
LD50 (HepG2 cells): approximately 3 μg/mL | hemolysis (in words) (human erythrocytes): did not cause hemolysis within the tested range | LD50 [3]: 1.5 µg/mL | LD50 as multiple of the MIC [3]: 12 X MIC | solubility at 1 h [9]: ≥ 50 µg/mL | bactericidal versus bacteriostatic nature (time-to-kill kinetics) (S. aureus MW2 [10]): bacteriostatic | IC50 (hERG channel [11]): > 10 µM | IC50 (S. aureus TrxR): 0.5 µM | LD50 [5]: approximately 3 μg/mL | LD50 (A549 cells): approximately 4 μg/mL | solubility at 2 h ([12]; PBS, 2 Hour, highest concentration with no detectable precipitate, read-out: Solubility Limit): 3.13 µM | solubility at 2 h ([12]; pbs, read-out: Solubility in PBS converted to mass concentration): 1.49 µg/mL | selectivity ratio at 24 h [13]: 16 to 32 | LD50 (HKC cells): < 2 µg/mL

From paper PMC11732138, “Gold complex compounds that inhibit drug-resistant Staphylococcus aureus by targeting thioredoxin reductase” (Frontiers in Antibiotics, 2023)
